From article PMC7767381, “Exploring the Anti-Cancer Mechanism of Novel 3,4′-Substituted Diaryl Guanidinium Derivatives” (Pharmaceuticals, 2020)

Assays:
[1] = system: HeLa cells; assay: alamarBlue cell viability assay, HeLa; type: cell-based; settings: Homo sapiens, 72 h, read-out: HeLa IC50 ± SEM
From the text: (§1) Cell viability and proliferation assays were used to evaluate the in vitro cytotoxicity of all synthesised compounds in a variety of different cancer cell lines using the alamarBlue® viability assay and the results are presented in Table 1 and Table 2. The sensitivity of cancer cells to drugs can often be compromised by PIK3CA, Ras and BRAF mutations. To determine whether such mutations are critical to the efficacy of our new compounds we tested them in a range of cancerous cell lines expressing different mutations. Firstly, we used the HL-60 (human promyelocytic leukaemia, NRas mutated) cell line for general cytotoxicity screening of all compounds. […] Lastly, toxicity against MCF-10A, which is a non-tumorigenic epithelial cell line, was also assessed for one of the most promising compounds (4). The graphs representing the viability results with the HL-60, MCF-7, HeLa, HCT-116, and HKH-2 cancer cell lines for compound 1 and derivatives 2, 3, and 4 are shown in Figures S7–S10 (ESI).
(§2) Cells were counted and seeded in 96-well plates at a density of 2 × 10^5 cells/mL for HL-60, 2.5 × 10^4 cells/mL for MCF-7, MCF10A and HeLa, 1 × 10^5 cells/mL for HCT116 and HKH-2, all of them in their respective media. The 96-well plates were then treated with a 1:100 dilution of stock concentrations of drugs or EtOH (1% v/v)/DMSO (0.1% v/v) as vehicle control in triplicate. Three blank wells containing 200 µL RPMI with no cells were also set-up as blanks. After a 72 h incubation, 20 µL of alamarBlue was added to each well. The plates were incubated in darkness at 37 °C for 4–5 h using a Molecular Devices microplate reader, the fluorescence (F) was then read at an excitation wavelength of 544 nm and an emission wavelength of 590 nm. Cell viability was then determined by subtracting the mean blank fluorescence (Fb) from the treated sample fluorescence (Fs) and expressing this as a percentage of the fluorescence of the blanked vehicle control (Fc). […] The results were then plotted as a nonlinear regression, sigmoidal dose-response curves on Prism, from which the IC50 value for each drug was determined.
(§3) The MCF-7 (human breast tumour) cell line was obtained from Prof. Mary Meegan, School of Pharmacy, TCD. It was maintained in Roswell Park Memorial Institute (RPMI) 1640 medium with stable glutamate (GlutaMax I) supplemented with 10% (v/v) fetal bovine serum (FBS), 1% (v/v) penicillin/ streptomycin (pen-strep) and 2 mM L-glutamine.
(§4) The HeLa (human epitheloid cervix carcinoma) cell line was obtained from Prof. Thorfinnur Gunnlaugsson, School of Chemistry TCD. It was maintainedin Dulbecco's Modified Eagle's Medium (DMEM) supplemented with 10% (v/v) fetal bovine serum (FBS) and 1%(v/v) penicillin/ streptomycin (pen-strep).
(§5) The HCT116and HKH-2 (human colon cancer cells) cell lines were obtained from Prof. James Murray, School of Biochemistry and Immunology TCD. They were maintainedin Dulbecco's Modified Eagle's Medium (DMEM) supplemented with 10% (v/v) fetal bovine serum (FBS), 1% (v/v) penicillin/ streptomycin (pen-strep), 1% (v/v) sodium pyruvate (NaPyr), 1% (v/v) L-glutamine (L-Glu) and, only for HKH-2, 0.6 mg/mL geneticine (G418).
(§6) MCF-10A (human breast epithelial) cell line was obtained from Prof. Mary Meegan, School of Pharmacy, TCD. […]
(§7) Cells were counted and seeded in 96 well plates at a density of 2 × 10^5 cells/mL for HL-60, 2.5× 10^4 cells/mL for MCF-7, MCF10A and HeLa, 1 × 10^5 cells/mL for HCT116 and HKH-2, all of them in their respective media. […]

[2] = system: HCT116 cells; assay: alamarBlue cell viability assay, HCT116; type: cell-based; settings: Homo sapiens, HCT-116, 72 h, KRas mutant, read-out: HCT116 IC50 ± SEM
From the text: as §1, §2, §3, §4, §5, §6, §7

Row | SMILES | IC50 [1] [µM] | melting point [°C] | IC50 [2] [µM]
1 | Cl.Cl.N=C(N)Nc1ccc(Oc2cccc(NC(=N)Nc3ccc(Cl)c(C(F)(F)F)c3)c2)cn1 [Compound 2, 1-(4-Chloro-3-(trifluoromethyl)phenyl)-3-(3-((6-guanidinopyridin-3-yl)oxy)phenyl) guanidine dihydrochloride] | 4.87 ± 0.27 | 169 to 171 | 7.29 ± 0.53
2 | Cl.N=C(N)Nc1ccc(Oc2cccc(Nc3ccc(Cl)c(C(F)(F)F)c3)c2)cc1 [Compound 3, 1-(4-(3-((4-Chloro-3-(trifluoromethyl)phenyl)amino)phenoxy)phenyl)guanidine hydrochloride] | 4.33 ± 0.54 | 58 to 60 | 15.9 ± 2.73
3 | Cl.N=C(N)Nc1ccc(Oc2cccc(Nc3ccc(Cl)c(C(F)(F)F)c3)c2)cn1 [Compound 4, 1-(5-(3-((4-Chloro-3-(trifluoromethyl)phenyl)amino)phenoxy)pyridin-2-yl)guanidine hydrochloride] | 1.33 ± 0.08 | 89 to 91 | 4.59 ± 0.4
